Calls of active or inactive are those of the source. The calls are words filed in the database; no cut-off is given here.
Assays:
[1] = system: HepG2; assay: Hypolipidemic activity in human HepG2 cells assessed as reduction in FFA-induced intracellular fat deposition at 10 uM after 24 hrs by Oil Red O staining based assay; type: functional, cell-based
[2] = system: Mus musculus; assay: Hypolipidemic activity in high fat diet-induced ICR mouse hyperlipidemic model assessed as reduction in plasma TC level at 25 mg/kg, ig administered once daily for 8 weeks; type: functional; parameters: scale not given: the % may be the effect or the level left
[3] = system: Mus musculus; assay: Hypolipidemic activity in high fat diet-induced ICR mouse hyperlipidemic model assessed as reduction in plasma TG level at 25 mg/kg, ig administered once daily for 8 weeks; type: functional; parameters: scale not given: the % may be the effect or the level left
[4] = Upregulation of ABCG8 protein expression in high-fat diet fed mouse small intestine at 25 mg/kg, po by Western blotting analysis; type: functional
[5] = system: Mus musculus; assay: Effect on SR-B1 protein expression level in high-fat diet fed mouse small intestine at 25 mg/kg, po by Western blotting analysis; type: functional, organism-based
[6] = system: Mus musculus; assay: Hypolipidemic activity in high fat diet-induced ICR mouse hyperlipidemic model assessed as reduction in plasma LDL-C level at 25 mg/kg, ig administered once daily for 8 weeks; type: functional; parameters: scale not given: the % may be the effect or the level left
[7] = system: Mus musculus; assay: Hypolipidemic activity in high fat diet-induced ICR mouse hyperlipidemic model assessed as increase in plasma HDL-C level at 25 mg/kg, ig administered once daily for 8 weeks; type: functional, organism-based
[8] = system: Mus musculus; assay: Hypolipidemic activity in normal diet fed ICR mouse assessed as alteration in plasma TC level at 25 mg/kg, ig administered once daily for 8 weeks; type: functional, organism-based
[9] = system: Mus musculus; assay: Hypolipidemic activity in normal diet fed ICR mouse assessed as alteration in plasma TG level at 25 mg/kg, ig administered once daily for 8 weeks; type: functional, organism-based
[10] = system: Mus musculus; assay: Hypolipidemic activity in normal diet fed ICR mouse assessed as alteration in plasma HDL-C level at 25 mg/kg, ig administered once daily for 8 weeks; type: functional, organism-based
[11] = system: Mus musculus; assay: Hypolipidemic activity in normal diet fed ICR mouse assessed as alteration in plasma LDL-C level at 25 mg/kg, ig administered once daily for 8 weeks; type: functional, organism-based
[12] = system: Mus musculus; assay: Hypolipidemic activity in high fat diet-induced ICR mouse hyperlipidemic model assessed as reduction in fat accumulation in liver at 25 mg/kg, ig administered once daily for 8 weeks by H and E staining based microscopic analysis; type: functional, organism-based
[13] = Toxicity in high fat diet-induced ICR mouse model of hyperlipidemia assessed as change in hepatic morphology at 25 mg/kg, ig administered once daily for 8 weeks by H and E staining based microscopic analysis; type: organism-based; conditions: in vivo, po, 1344 h
[14] = Toxicity in high fat diet-induced ICR mouse model of hyperlipidemia assessed as change in liver weight at 25 mg/kg, ig administered once daily for 8 weeks by H and E staining based microscopic analysis; type: organism-based; conditions: in vivo, po, 1344 h
[15] = Toxicity in high fat diet-induced ICR mouse model of hyperlipidemia assessed as change in heart weight at 25 mg/kg, ig administered once daily for 8 weeks by H and E staining based microscopic analysis; type: organism-based; conditions: in vivo, po, 1344 h
[16] = Toxicity in high fat diet-induced ICR mouse model of hyperlipidemia assessed as change in lung weight at 25 mg/kg, ig administered once daily for 8 weeks by H and E staining based microscopic analysis; type: organism-based; conditions: in vivo, po, 1344 h
[17] = Toxicity in high fat diet-induced ICR mouse model of hyperlipidemia assessed as change in kidney weight at 25 mg/kg, ig administered once daily for 8 weeks by H and E staining based microscopic analysis; type: organism-based; conditions: in vivo, po, 1344 h
[18] = Toxicity in high fat diet-induced ICR mouse model of hyperlipidemia assessed as change in spleen weight at 25 mg/kg, ig administered once daily for 8 weeks by H and E staining based microscopic analysis; type: organism-based; conditions: in vivo, po, 1344 h
[19] = Toxicity in high fat diet-induced ICR mouse model of hyperlipidemia assessed as change in stomach weight at 25 mg/kg, ig administered once daily for 8 weeks by H and E staining based microscopic analysis; type: organism-based; conditions: in vivo, po, 1344 h
[20] = system: Mus musculus; assay: Hypolipidemic activity in high fat diet-induced ICR mouse hyperlipidemic model assessed as reduction in TG level in liver at 25 mg/kg, ig administered once daily for 8 weeks by H and E staining based microscopic analysis; type: functional, organism-based
[21] = system: HepG2; assay: Hypolipidemic activity in human HepG2 cells assessed as reduction in FFA-induced TG accumulation after 24 hrs; type: functional, cell-based; conditions: dose 10-100 µM
[22] = system: Mus musculus; assay: Hypolipidemic activity in high fat diet-induced ICR mouse hyperlipidemic model assessed as reduction in TC level in liver at 25 mg/kg, ig administered once daily for 8 weeks by H and E staining based microscopic analysis; type: functional, organism-based
[23] = system: Mus musculus; assay: Hypolipidemic activity in normal diet fed ICR mouse assessed as reduction in TC level in liver at 25 mg/kg, ig administered once daily for 8 weeks by H and E staining based microscopic analysis; type: functional, organism-based
[24] = system: Mus musculus; assay: Effect on ABCG5 protein expression level in high-fat diet fed mouse liver at 25 mg/kg/day by Western blotting analysis; type: functional, organism-based
[25] = system: Mus musculus; assay: Hypolipidemic activity in normal diet fed ICR mouse assessed as reduction in TG level in liver at 25 mg/kg, ig administered once daily for 8 weeks by H and E staining based microscopic analysis; type: functional, organism-based
[26] = system: HepG2; assay: Cytotoxicity against human HepG2 cells assessed as reduction in cell viability at 1 to 100 uM after 24 hrs by CCK8 assay; type: cell-based; conditions: hepg2, 24 h, dose 1-100 µM
[27] = system: Mus musculus; assay: Effect on ABCG1 protein expression level in high-fat diet fed mouse liver at 25 mg/kg/day by Western blotting analysis; type: functional, organism-based
[28] = system: Mus musculus; assay: Effect on ABCA1 protein expression level in high-fat diet fed mouse liver at 25 mg/kg/day by Western blotting analysis; type: functional, organism-based
[29] = system: HepG2; assay: Hypolipidemic activity in human HepG2 cells assessed as reduction in FFA-induced lipid accumulation incubated for 24 hrs by Oil Red O staining based assay; type: functional, cell-based; conditions: dose 10-100 µM
[30] = system: Mus musculus; assay: Upregulation of SR-B1 protein expression level in high-fat diet fed mouse liver at 25 mg/kg/day by Western blotting analysis; type: functional, organism-based
[31] = system: HepG2; assay: Hypolipidemic activity in human HepG2 cells assessed as reduction in FFA-induced intracellular fat deposition at 50 to 100 uM after 24 hrs by Oil Red O staining based assay; type: functional; parameters: scale not given: the % may be the effect or the level left; conditions: dose 50-100 µM
[32] = system: Mus musculus; assay: Effect on ABCG8 protein expression level in high-fat diet fed mouse liver at 25 mg/kg/day by Western blotting analysis; type: functional, organism-based
[33] = system: Mus musculus; assay: Effect on NPC1L1 protein expression level in high-fat diet fed mouse liver at 25 mg/kg/day by Western blotting analysis; type: functional, organism-based
[34] = system: Mus musculus; assay: Effect on ABCG1 mRNA expression level in high-fat diet fed mouse liver at 25 mg/kg/day by qRT-PCR analysis; type: functional, organism-based
[35] = system: Mus musculus; assay: Effect on ABCA1 mRNA expression level in high-fat diet fed mouse liver at 25 mg/kg/day by qRT-PCR analysis; type: functional, organism-based
[36] = system: Mus musculus; assay: Effect on SR-B1 mRNA expression level in high-fat diet fed mouse liver at 25 mg/kg/day by qRT-PCR analysis; type: functional, organism-based
[37] = system: Mus musculus; assay: Effect on NPC1 mRNA expression level in high-fat diet fed mouse liver at 25 mg/kg/day by qRT-PCR analysis; type: functional, organism-based
[38] = system: Mus musculus; assay: Effect on ABCG5 mRNA expression level in high-fat diet fed mouse liver at 25 mg/kg/day by qRT-PCR analysis; type: functional, organism-based
[39] = system: Mus musculus; assay: Upregulation of ABCG8 mRNA expression in high-fat diet fed mouse liver at 25 mg/kg/day by qRT-PCR analysis; type: functional, organism-based
[40] = system: Mus musculus; assay: Effect on ABCA1 protein expression level in high-fat diet fed mouse small intestine at 25 mg/kg, po by Western blotting analysis; type: functional, organism-based
[41] = system: Mus musculus; assay: Effect on ABCG5 protein expression level in high-fat diet fed mouse small intestine at 25 mg/kg, po by Western blotting analysis; type: functional, organism-based
[42] = system: Mus musculus; assay: Effect on NPC1L1 protein expression level in high-fat diet fed mouse small intestine at 25 mg/kg, po by Western blotting analysis; type: functional, organism-based
[43] = Upregulation of […] expression in high-fat diet fed mouse small intestine assessed as fold increase at 25 mg/kg, po by qRT-PCR analysis; type: functional
[44] = system: Mus musculus; assay: Effect on ABCA1 mRNA expression level in high-fat diet fed mouse small intestine at 25 mg/kg, po by qRT-PCR analysis; type: functional, organism-based
[45] = system: Mus musculus; assay: Effect on ABCG5 mRNA expression level in high-fat diet fed mouse small intestine at 25 mg/kg, po by qRT-PCR analysis; type: functional, organism-based
[46] = system: Mus musculus; assay: Effect on SR-B1 mRNA expression level in high-fat diet fed mouse small intestine at 25 mg/kg, po by qRT-PCR analysis; type: functional, organism-based
[47] = system: Mus musculus; assay: Effect on NPC1 mRNA expression level in high-fat diet fed mouse small intestine at 25 mg/kg, po by qRT-PCR analysis; type: functional, organism-based
[48] = Toxicity in high fat diet-induced mouse model of hyperlipidemia assessed as change in body weight at 25 mg/kg, ig administered once daily for 8 weeks; type: organism-based; conditions: in vivo, po, 1344 h
[49] = Toxicity in high fat diet-induced mouse model of hyperlipidemia assessed as change in food intake at 25 mg/kg, ig administered once daily for 8 weeks; type: organism-based; conditions: in vivo, po, 1344 h

CC(C)c1c(C(=O)Nc2ccccc2)c(-c2ccccc2)c(-c2ccc(F)cc2)n1CC[C@@H](O)C[C@@H](O)CC(=O)O
Activity [1]: Active

O=C(/C=C/C=C/c1ccc2c(c1)OCO2)N1CCCCC1 [PIPERINE]
Activity [2]: 27.5%
Activity [3]: 43.6%
Activity [4]: 80%
Activity [5]: inactive
Activity [6]: 34.4%
Activity [7]: Active
Activity [8]: inactive
Activity [9]: inactive
Activity [10]: inactive
Activity [11]: inactive
Activity [12]: Active
Activity [13]: Non-Toxic
Activity [14]: Non-Toxic
Activity [15]: Non-Toxic
Activity [16]: Non-Toxic
Activity [17]: Non-Toxic
Activity [18]: Non-Toxic
Activity [19]: Non-Toxic
Activity [20]: Active
Activity [21]: Dose-Dependent Effect
Activity [22]: Active
Activity [23]: inactive
Activity [24]: inactive
Activity [25]: inactive
Activity [26]: Non-Toxic
Activity [27]: inactive
Activity [28]: inactive
Activity [29]: Dose-Dependent Effect
Activity [30]: Active
Activity [31]: 36%
Activity [32]: inactive
Activity [33]: inactive
Activity [34]: inactive
Activity [35]: inactive
Activity [36]: inactive
Activity [37]: inactive
Activity [38]: inactive
Activity [39]: Active
Activity [40]: inactive
Activity [41]: inactive
Activity [42]: inactive
fold change (FC) [43]: 1.8
Activity [44]: inactive
Activity [45]: inactive
Activity [46]: inactive
Activity [47]: inactive
Activity [48]: Non-Toxic
Activity [49]: Non-Toxic

— ChEMBL document CHEMBL4819025, “Natural Piperine Improves Lipid Metabolic Profile of High-Fat Diet-Fed Mice by Upregulating SR-B1 and ABCG8 Transporters” (J Nat Prod, 2021)
